Laboratory results: patent US20080063668A1, “Nitroimidazole and terconazole composition and method” (priority 2006, published 2008)

How the values were obtained:
Experiment in all cases: Inhibition of bacteria growth, drug dilution tubes, anaerobic
Type in all cases: cell-based
Parameters in all cases: key: (+) for growth; (−) for no growth; (±) for suboptimal growth after an initial observation of growth
[1] = test system: Gardnerella vaginalis ATCC 14018
Method: (§1) Serial dilutions of tinidazole and terconazole were prepared by adding measured amounts of each substance to water (both individually and in combination). Seven bacterial organisms that are common pathogens in bacterial vaginosis were grown anaerobically in the medium as listed in Table 4 under a N2/H2/CO2 (85:5:10) head space atmosphere. [table] These cultures were diluted to a 0.5 McFarland standard prior to inoculation of drug dilution tubes. One (1) mL of the 0.5 McFarland preparation was inoculated to an anaerobically prepared test tube containing 0.8 mL of Difco anaerobic medium (DAMM) and 0.2 mL of appropriate diluted antimicrobial or antimicrobial combination for a total of 2 mL. The inoculated tubes were then incubated at 37° C. and monitored daily for growth. Growth was scored with a (+) for growth, (−) for no growth, and (±) for suboptimal growth after an initial observation of growth. Tinidazole is abbreviated as TNZ and terconazole is abbreviated as TER in Tables 5 through 11.

[2] = test system: Bacteroides fragilis ATCC 25285
Method: as §1

[3] = test system: Mobiluncus curtisii var. holmesii ATCC 35242
Method: as §1

## CCS(=O)(=O)CCn1c([N+](=O)[O-])cnc1C [TNZ, 1-[2-(ethylsulfonyl)ethyl]-2-methyl-5-nitroimidazole]
[1]; TNZ 2 μg/ml, DAY 1
  growth: (+)
[1]; TNZ 2 μg/ml, DAY 2
  growth: (+)
[1]; TNZ 2 μg/ml, DAY 3
  growth: (+)
[1]; TNZ 2 μg/ml, DAY 4
  growth: (+)
[1]; TNZ 2 μg/ml, DAY 5
  growth: (+)
[1]; TNZ 3.9 μg/ml, DAY 1
  growth: (+)
[1]; TNZ 3.9 μg/ml, DAY 2
  growth: (+)
[1]; TNZ 3.9 μg/ml, DAY 3
  growth: (+)
[1]; TNZ 3.9 μg/ml, DAY 4
  growth: (+)
[1]; TNZ 3.9 μg/ml, DAY 5
  growth: (+)
[1]; TNZ 7.8 μg/ml, DAY 1
  growth: (−)
[1]; TNZ 7.8 μg/ml, DAY 2
  growth: (+)
[1]; TNZ 7.8 μg/ml, DAY 3
  growth: (+)
[1]; TNZ 7.8 μg/ml, DAY 4
  growth: (+)
[1]; TNZ 7.8 μg/ml, DAY 5
  growth: (+)
[1]; TNZ 15.6 μg/ml, DAY 1
  growth: (−)
[1]; TNZ 15.6 μg/ml, DAY 2
  growth: (+)
[1]; TNZ 15.6 μg/ml, DAY 3
  growth: (+)
[1]; TNZ 15.6 μg/ml, DAY 4
  growth: (+)
[1]; TNZ 15.6 μg/ml, DAY 5
  growth: (+)
[1]; TNZ 31.3 μg/ml, DAY 1
  growth: (−)
[1]; TNZ 31.3 μg/ml, DAY 2
  growth: (−)
[1]; TNZ 31.3 μg/ml, DAY 3
  growth: (−)
[1]; TNZ 31.3 μg/ml, DAY 4
  growth: (−)
[1]; TNZ 31.3 μg/ml, DAY 5
  growth: (−)
[1]; TNZ 62.5 μg/ml, DAY 1
  growth: (−)
[1]; TNZ 62.5 μg/ml, DAY 2
  growth: (−)
[1]; TNZ 62.5 μg/ml, DAY 3
  growth: (−)
[1]; TNZ 62.5 μg/ml, DAY 4
  growth: (−)
[1]; TNZ 62.5 μg/ml, DAY 5
  growth: (−)
[1]; TNZ 125 μg/ml, DAY 1
  growth: (−)
[1]; TNZ 125 μg/ml, DAY 2
  growth: (−)
[1]; TNZ 125 μg/ml, DAY 3
  growth: (−)
[1]; TNZ 125 μg/ml, DAY 4
  growth: (−)
[1]; TNZ 125 μg/ml, DAY 5
  growth: (−)
[1]; TNZ 250 μg/ml, DAY 1
  growth: (−)
[1]; TNZ 250 μg/ml, DAY 2
  growth: (−)
[1]; TNZ 250 μg/ml, DAY 3
  growth: (−)
[1]; TNZ 250 μg/ml, DAY 4
  growth: (−)
[1]; TNZ 250 μg/ml, DAY 5
  growth: (−)
[1]; TNZ 500 μg/ml, DAY 1
  growth: (−)
[1]; TNZ 500 μg/ml, DAY 2
  growth: (−)
[1]; TNZ 500 μg/ml, DAY 3
  growth: (−)
[1]; TNZ 500 μg/ml, DAY 4
  growth: (−)
[1]; TNZ 500 μg/ml, DAY 5
  growth: (−)
[2]; TNZ 2 μg/ml, DAY 1
  growth: (−)
[2]; TNZ 2 μg/ml, DAY 2
  growth: (−)
[2]; TNZ 2 μg/ml, DAY 3
  growth: (−)
[2]; TNZ 2 μg/ml, DAY 4
  growth: (−)
[2]; TNZ 2 μg/ml, DAY 5
  growth: (+)
[2]; TNZ 3.9 μg/ml, DAY 1
  growth: (−)
[2]; TNZ 3.9 μg/ml, DAY 2
  growth: (−)
[2]; TNZ 3.9 μg/ml, DAY 3
  growth: (−)
[2]; TNZ 3.9 μg/ml, DAY 4
  growth: (−)
[2]; TNZ 3.9 μg/ml, DAY 5
  growth: (−)
[2]; TNZ 7.8 μg/ml, DAY 1
  growth: (−)
[2]; TNZ 7.8 μg/ml, DAY 2
  growth: (−)
[2]; TNZ 7.8 μg/ml, DAY 3
  growth: (−)
[2]; TNZ 7.8 μg/ml, DAY 4
  growth: (−)
[2]; TNZ 7.8 μg/ml, DAY 5
  growth: (−)
[2]; TNZ 15.6 μg/ml, DAY 1
  growth: (−)
[2]; TNZ 15.6 μg/ml, DAY 2
  growth: (−)
[2]; TNZ 15.6 μg/ml, DAY 3
  growth: (−)
[2]; TNZ 15.6 μg/ml, DAY 4
  growth: (−)
[2]; TNZ 15.6 μg/ml, DAY 5
  growth: (−)
[2]; TNZ 31.3 μg/ml, DAY 1
  growth: (−)
[2]; TNZ 31.3 μg/ml, DAY 2
  growth: (−)
[2]; TNZ 31.3 μg/ml, DAY 3
  growth: (−)
[2]; TNZ 31.3 μg/ml, DAY 4
  growth: (−)
[2]; TNZ 31.3 μg/ml, DAY 5
  growth: (−)
[2]; TNZ 62.5 μg/ml, DAY 1
  growth: (−)
[2]; TNZ 62.5 μg/ml, DAY 2
  growth: (−)
[2]; TNZ 62.5 μg/ml, DAY 3
  growth: (−)
[2]; TNZ 62.5 μg/ml, DAY 4
  growth: (−)
[2]; TNZ 62.5 μg/ml, DAY 5
  growth: (−)
[2]; TNZ 125 μg/ml, DAY 1
  growth: (−)
[2]; TNZ 125 μg/ml, DAY 2
  growth: (−)
[2]; TNZ 125 μg/ml, DAY 3
  growth: (−)
[2]; TNZ 125 μg/ml, DAY 4
  growth: (−)
[2]; TNZ 125 μg/ml, DAY 5
  growth: (−)
[2]; TNZ 250 μg/ml, DAY 1
  growth: (−)
[2]; TNZ 250 μg/ml, DAY 2
  growth: (−)
[2]; TNZ 250 μg/ml, DAY 3
  growth: (−)
[2]; TNZ 250 μg/ml, DAY 4
  growth: (−)
[2]; TNZ 250 μg/ml, DAY 5
  growth: (−)
[2]; TNZ 500 μg/ml, DAY 1
  growth: (−)
[2]; TNZ 500 μg/ml, DAY 2
  growth: (−)
[2]; TNZ 500 μg/ml, DAY 3
  growth: (−)
[2]; TNZ 500 μg/ml, DAY 4
  growth: (−)
[2]; TNZ 500 μg/ml, DAY 5
  growth: (−)
[3]; TNZ 2 μg/ml, DAY 1
  growth: (+)
[3]; TNZ 2 μg/ml, DAY 2
  growth: (+)
[3]; TNZ 2 μg/ml, DAY 3
  growth: (+)
[3]; TNZ 2 μg/ml, DAY 4
  growth: (+)
[3]; TNZ 2 μg/ml, DAY 5
  growth: (+)
[3]; TNZ 3.9 μg/ml, DAY 1
  growth: (+)
[3]; TNZ 3.9 μg/ml, DAY 2
  growth: (+)
[3]; TNZ 3.9 μg/ml, DAY 3
  growth: (+)
[3]; TNZ 3.9 μg/ml, DAY 4
  growth: (+)
[3]; TNZ 3.9 μg/ml, DAY 5
  growth: (+)
[3]; TNZ 7.8 μg/ml, DAY 1
  growth: (+)
[3]; TNZ 7.8 μg/ml, DAY 2
  growth: (+)
[3]; TNZ 7.8 μg/ml, DAY 3
  growth: (+)
[3]; TNZ 7.8 μg/ml, DAY 4
  growth: (+)
[3]; TNZ 7.8 μg/ml, DAY 5
  growth: (+)
[3]; TNZ 15.6 μg/ml, DAY 1
  growth: (+)
[3]; TNZ 15.6 μg/ml, DAY 2
  growth: (+)
[3]; TNZ 15.6 μg/ml, DAY 3
  growth: (+)
[3]; TNZ 15.6 μg/ml, DAY 4
  growth: (+)
[3]; TNZ 15.6 μg/ml, DAY 5
  growth: (+)
[3]; TNZ 31.3 μg/ml, DAY 1
  growth: (+)
[3]; TNZ 31.3 μg/ml, DAY 2
  growth: (+)
[3]; TNZ 31.3 μg/ml, DAY 3
  growth: (+)
[3]; TNZ 31.3 μg/ml, DAY 4
  growth: (+)
[3]; TNZ 31.3 μg/ml, DAY 5
  growth: (+)
[3]; TNZ 62.5 μg/ml, DAY 1
  growth: (+)
[3]; TNZ 62.5 μg/ml, DAY 2
  growth: (+)
[3]; TNZ 62.5 μg/ml, DAY 3
  growth: (+)
[3]; TNZ 62.5 μg/ml, DAY 4
  growth: (+)
[3]; TNZ 62.5 μg/ml, DAY 5
  growth: (+)
[3]; TNZ 125 μg/ml, DAY 1
  growth: (+)
[3]; TNZ 125 μg/ml, DAY 2
  growth: (+)
[3]; TNZ 125 μg/ml, DAY 3
  growth: (+)
[3]; TNZ 125 μg/ml, DAY 4
  growth: (+)
[3]; TNZ 125 μg/ml, DAY 5
  growth: (+)
[3]; TNZ 250 μg/ml, DAY 1
  growth: (+)
[3]; TNZ 250 μg/ml, DAY 2
  growth: (+)
[3]; TNZ 250 μg/ml, DAY 3
  growth: (+)
[3]; TNZ 250 μg/ml, DAY 4
  growth: (+)
[3]; TNZ 250 μg/ml, DAY 5
  growth: (+)
[3]; TNZ 500 μg/ml, DAY 1
  growth: (+)
[3]; TNZ 500 μg/ml, DAY 2
  growth: (+)
[3]; TNZ 500 μg/ml, DAY 3
  growth: (+)
[3]; TNZ 500 μg/ml, DAY 4
  growth: (+)
[3]; TNZ 500 μg/ml, DAY 5
  growth: (+)
